ChEMBL document CHEMBL1143244, “Conformational studies of 3-amino-1-alkyl-cyclopentane carboxamide CCR2 antagonists leading to new spirocyclic antagonists” (Bioorg Med Chem Lett, 2008)

Assays:
[1] = biological target: T1, C-C chemokine receptor type 2 (Homo sapiens, UniProt P41597); assay: Displacement of [125I]MCP1 from human CCR2 expressed in human monocytes; assay type: cell-based
Target sequence in this assay (P41597 whole entry): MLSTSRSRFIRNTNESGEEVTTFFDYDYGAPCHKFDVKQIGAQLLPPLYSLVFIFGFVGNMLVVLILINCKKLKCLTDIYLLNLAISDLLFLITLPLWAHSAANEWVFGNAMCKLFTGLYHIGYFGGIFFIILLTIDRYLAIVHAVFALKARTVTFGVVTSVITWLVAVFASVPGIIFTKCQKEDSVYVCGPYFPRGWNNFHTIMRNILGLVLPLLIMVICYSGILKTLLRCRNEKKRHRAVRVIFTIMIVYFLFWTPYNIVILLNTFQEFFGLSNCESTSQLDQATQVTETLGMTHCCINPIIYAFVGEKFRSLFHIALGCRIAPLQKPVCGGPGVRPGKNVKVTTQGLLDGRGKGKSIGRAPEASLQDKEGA

[2] = biological target: T1, C-C chemokine receptor type 2; assay: Displacement of [125I]MCP1 from human CCR2 expressed in human monocytes at 1 uM; assay type: cell-based
Target sequence in this assay (P41597 whole entry, looked up): as the sequence (P41597 whole entry) above

Compound | IC50 [1] [nM] | inhibition [2] [%]
CC(C)[C@]1(C(=O)NCc2cc(F)cc(C(F)(F)F)c2)CC[C@@H](N2CC[C@@]3(C=Cc4ccccc43)[C@@H](C)C2)C1 | 1.4 | –
C[C@H]1CN([C@@H]2CCC3(CCN(Cc4cc(F)cc(C(F)(F)F)c4)C3=O)C2)CC[C@@]12C=Cc1ccccc12 (some centres undefined) | – | 18
C[C@H]1CN([C@@H]2CC[C@@]3(CCO[C@H]3OCc3cc(F)cc(C(F)(F)F)c3)C2)CC[C@@]12C=Cc1ccccc12 | 4.6 | –
C[C@H]1CN([C@@H]2CC[C@@]3(CCO[C@@H]3OCc3cc(F)cc(C(F)(F)F)c3)C2)CC[C@@]12C=Cc1ccccc12 | 115 | –
